In patent US8969296B2, “TGFP-CAP peptide and its uses” (Caregen Co., Ltd, priority 2007, dated 2015):
Where a SMILES comes first, the peptide text is derived from it.

How the values were obtained:
NIH-3T3 cells = assay: Stability analysis: remaining activity of solutions stored at 37° C., by MTT assay; format: physicochemical; conditions: 50 mM Tris-HCl (pH 8.0), days 0-100, tridecapeptide 10 μg/ml, TGF-β1 1 μg/ml
Method: To evaluate stability of the purified tridecapeptide, NH2-Ile-Trp-Ser-Leu-Asp-Thr-Gln-Tyr-Gly-Gly-Arg-Gly-Asp-OH, it was dissolved in 50 mM Tris-HCl (pH 8.0) to a concentration of 10 μg/ml. A recombinant TGF-β1 (Sigma) produced by E. coli was prepared as a control in the same buffer to a concentration of 1 μg/ml. The prepared solutions were introduced into glass vials and kept to stand at 37° C. Afterwards, the solutions were taken on days 0, 1, 10, 25, 50, 75 and 100 and subjected to a MTT assay (Scudiero, D. A., et al. Cancer Res. 48:4827-4833 (1988)) using NIH-3T3 cells (Korean Cell Line Bank) for determining their remaining activity (FIG. 2). The results were given as relative values to the activity (100%) of sample taken on day 0.

tyrosinase = assay: Tyrosinase activity in extracts of treated B16F10 cells (L-DOPA, absorbance 405 nm); format: cell-based; conditions: α-MSH 200 ng/ml, TGFβ-1 10 ng/ml or peptide 10 ng/ml-30 μg/ml, 4 days
Method: The tridecapeptide synthesized in Example 1 was analyzed to decrease levels of melanin pigment. B16F10 cells (Korean Cell Line Bank) were plated in a density of 1×10^5 cells/well and cultured in DMEM (Sigma) for 3 days at 37° C. under 5% CO2 conditions. After cell adhesion was observed, medium was changed with a fresh medium containing 2% serum. Cells were incubated with tested materials in determined concentrations for 4 days at 37° C. under 5% CO2 conditions. The tested materials were prepared in such a manner that components indicated in Table 6 were dissolved in medium and diluted with a mixed solvent of propylene glycol:ethanol:distilled water (5:3:2).
Afterwards, cells were harvested and treated with a lysis buffer containing sodiumdodecylsulfate (Sigma) and Triton X-100 (Sigma) to extract intracellular proteins. The extracted proteins were quantitated by the BCA method. For each experiment group, 90 μl of protein solution and 10 μl of L-DOPA (Sigma) were added and reacted for 30 min. The resultants were analyzed to measure their absorbance values at 405 nm for evaluating tyrosinase activities.

B16F10 cells = assay: Melanosome formation under ERK inhibition by PD98059 (microscopy); format: cell-based; conditions: 10 μM PD98059; with 1 ng/ml transforming growth factor or 30 μg/ml tridecapeptide; 4 days
Method: To reveal skin whitening effects of the tridecapeptide synthesized in Example 1 and transforming growth factor, the activation of ERK was inhibited with PD98059 (Sigma) and then its inhibitory influence was evaluated after peptide treatment. B16F10 cells were seeded in 6-well culture dishes in a density of 1×10^5 cells/well and cultured in DMEM for 3 days at 37° C. under 5% CO2 conditions. After cell adhesion was observed, medium was changed with a fresh medium containing 2% serum. The negative control was not subject to any treatment. Cells plated in other two culture dishes were incubated with either 1 ng/ml transforming growth factor or 30 μg/ml tridecapeptide. In addition, cells cultured in other three dishes as a positive control were incubated with 10 μM PD98059 to inhibit ERK phosphorylation. Among them, cells contained in two dishes were incubated for 4 days with either 1 ng/ml transforming growth factor or 30 μg/ml tridecapeptide after 1-hr PD98059 treatment and their morphology was observed under microscopes.

ERK 1/2 = assay: Western blotting of Phospho ERK 1/2 in melanoma cells; format: cell-based; conditions: 10 μM PD98059; with 10 ng/ml TGF-β1 or 30 μg/ml tridecapeptide
Method: Furthermore, to clearly verify the influence of TGF-β1 and tridecapeptide on signaling events, melanoma cells were cultured as described above and then incubated simultaneously with 10 μM PD98059 and 30 μg/ml tridecapeptide. Proteins from cell extracts were prepared and developed on SDS-PAGE, followed by electro-transferring to PVDF (polyvinylidene difluoride) membrane (GE Health Care). Afterwards, the PVDF membrane was incubated with Phospho ERK 1/2 antibodies (1/3000 diluted, Cell Signaling, USA) for 4 hr at room temperature. The PVDF membrane was washed with a washing buffer and incubated with HRP-conjugated anti-mouse IgG antibodies (1/5000 diluted, SantaCruz, USA). Then, it was washed twice with a washing buffer and incubated with ECL (enhanced chemilumineseance) solution (GE Health Care) (FIG. 6). In FIG. 6, among PD98059 treatment groups, the symbol “Con” is a group incubated with only 10 μM PD98059 and “TGFb1” is a group incubated with both 10 μM PD98059 and 10 ng/ml TGF-β1.

[1] = system: TRP-1 (tyrosinase related protein-1) and TRP-2; assay: Levels of TRP-1 and TRP-2 in melanoma cells (Western blotting); format: cell-based; conditions: 10 μM PD98059; with 10 ng/ml TGF-β1 or 30 μg/ml tridecapeptide
Mice melanocytes = assay: Inhibition of melanin generation induced by α-MSH (Dooley method); format: cell-based; conditions: α-MSH 200 ng/ml; peptide 10 ng/ml-30 μg/ml; 3 days; absorbance 400 nm
Method: The tridecapeptide synthesized in Example 1 was analyzed to decrease levels of melanin pigment. Mice melanocytes cultured were incubated with α-MSH (melanocyte stimulating hormone/Sigma) and then with the tridecapeptide in the determined concentrations to measure inhibition effects on melanin generation. Mice melanocytes were originated from C57BL/6 mice and cultured in DMEM (Dulbecco's modified Eagle's media) containing 10% fetal bovine serum at 37° C. under 5% CO2 conditions. Cells were cultured in a density of 1×10^5 cells/well and their adhesion to culture plates was observed. Then, cells were incubated with materials to be tested for 3 days. The tested materials were prepared in such a manner that components indicated in Table 5 were dissolved in medium and diluted with a mixed solvent of propylene glycol:ethanol:distilled water (5:3:2). Following removal of medium, cells were washed with PBS and treated with 1 N sodium hydroxide. The resultants were analyzed to measure their absorbance values at 400 nm.

HaCaT = assay: Cytotoxicity test, SRB colorimetric assay, keratinocytes; format: cell-based; conditions: 500 pg/ml-200 μg/ml, 72 hr
Method: (§1) To verify cytotoxicity of peptides of this invention on keratinocytes, fibroblasts and melanoma cells, SRB (Sulforhodamine B) colorimetric assay was carried out using HaCaT, NIH3T3 and B16F10 cells according to Rizzino et al method (Rizzino, et al. Cancer Res., 48:4266 (1988)). HaCaT, NIH3T3 or B16F10 cells (Korean Cell Line Bank) were cultured in 250 ml-flasks containing EMEM (Eagle's minimal essential media, Gibco, U.S.A.) supplemented with […] (fetal bovine serum). Cells cultured were treated with 0.25% trypsin solution to detach cells from the bottom of culture flasks and centrifuged to collect cell pellets. Cells were resuspended in EMEM not containing FBS, its aliquot (1×10^5) cells was added to each well of 96-well plates and cultured under 7% CO2 for 24 hr at 37° C. After 24-hr culture, the medium was changed with a fresh medium not containing serum and cells were incubated with the tridecapeptide (500 pg/ml, 10 ng/ml, 1 μg/ml, 100 μg/ml and 200 μg/ml) dissolved in 10% DMSO for 72 hr under the same conditions as described above. After removing supernatants, cells were washed once using PBS and incubated with SRB solution (Sigma). Cells were washed with PBS and observed under a microscope to find cell viability. In addition, absorbance at 590 nm was measured to analyze cell proliferation.

NIH3T3 = assay: Cytotoxicity test, SRB colorimetric assay, fibroblasts; format: cell-based; conditions: 500 pg/ml-200 μg/ml, 72 hr
Method: as §1

B16F10 = assay: Cytotoxicity test, SRB colorimetric assay, melanoma cells; format: cell-based; conditions: 500 pg/ml-200 μg/ml, 72 hr
Method: as §1

Molecule | remaining activity over time (relative to day 0 = 100%) (NIH-3T3 cells) | tyrosinase activity (tyrosinase) | melanosome number (B16F10 cells) | levels of Phospho ERK 1 and ERK 2 (ERK 1/2) | levels of TRP-1 and TRP-2 [1] | melanin generation / melanin content (Mice melanocytes) | cell number (cytotoxicity) (HaCaT) | cell number (cytotoxicity) (NIH3T3) | cell number (cytotoxicity) (B16F10)
TGF-β1: recombinant TGF-β1 (Sigma) produced by E. coli, used as control | sharply decreased with the lapse of time | relatively reduced tyrosinase activity in a dose dependent manner | significantly reduced melanosome number | elevated levels of Phoshpo ERK 1 and ERK 2 | decreased | – | – | – | –
α-MSH: melanocyte stimulating hormone/Sigma, used to induce melanin generation (Ac-SYSMEHFRWGKPV-NH2; ends and bridges not checked; UniProt P01189 138-150, looked up) [reference compound] | – | highly elevated level of tyrosinase activity | – | – | – | highly elevated level of melanin production | – | – | –
COc1cccc(-c2cc(=O)c3ccccc3o2)c1N [PD98059, reference compound] | – | – | a large number of darkish pigments by induced melanosomes | greatly decrease levels of Phoshpo ERK 1 and ERK 2 | increased | – | – | – | –
CC[C@H](C)[C@H](N)C(=O)N[C@@H](Cc1c[nH]c2ccccc12)C(=O)N[C@@H](CO)C(=O)N[C@@H](CC(C)C)C(=O)N[C@@H](CC(=O)O)C(=O)N[C@H](C(=O)N[C@@H](CCC(N)=O)C(=O)N[C@@H](Cc1ccc(O)cc1)C(=O)NCC(=O)NCC(=O)N[C@@H](CCCNC(=N)N)C(=O)NCC(=O)N[C@@H](CC(=O)O)C(=O)O)[C@@H](C)O [tridecapeptide, NH2-Ile-Trp-Ser-Leu-Asp-Thr-Gln-Tyr-Gly-Gly-Arg-Gly-Asp-OH] (H-IWSLDTQYGGRGD-OH) | – | – | – | – | – | – | the decrease in cell number was not shown | the decrease in cell number was not shown | the decrease in cell number was not shown
